Counter-ions that a name gives are not always drawn.
Tested on: γ-secretase; production of amyloid beta protein Aβ(1-42)
Assay: Cell-Based γ-Secretase Assay with ELISA Readout
Conditions: human WT-APP overexpressing CHO cells; geometric mean of 2-4 determinations unless otherwise indicated (footnote 10: 6-8; footnote 14: single determination); read-out: Aβ 42B IC50
Experimental: The ability of compounds to modulate production of amyloid beta protein A6(1-42) was determined using human WT-APP overexpressing CHO cells. Cells were plated at 22,000 cells/100 μL well in 96 well tissue culture treated, clear plates (Falcon) in DMEM/F12 based medium and incubated for 24 hours at 37° C. Compounds for testing were diluted in 100% DMSO to achieve an eleven points, half log, dose response for IC50 determinations. Compounds were added in fresh medium to achieve 1% final DMSO. Appropriate vehicle and inhibitor controls were added to obtain maximum and minimum inhibition values for the assay before the plates were incubated for about 24 hours at 37° C.
Coating of ELISA assay plates was initiated by addition of 50 μL/well of an in-house Aβ(1-42) specific antibody at (4 μg/mL) in 0.1 M NaHCO3 (pH 9.0) into black 384-well Maxisorp® plates (Nunc) and incubated overnight at 4° C. The capture antibody was then aspirated from the ELISA assay plates and 100 μL/well of Blocking Buffer (Dulbecco's PBS, 1.5% BSA (Sigma A7030)) added. Ambient temperature incubation was allowed to proceed for a minimum of two hours before washing 2×100 μL with Wash Buffer (Dulbecco's PBS, 0.05% Tween 20). Assay Buffer (Dulbecco's PBS, 1.0% BSA (Sigma A7030), 0.05% Tween 20) 20 μL/well was then added.
After incubation overnight at 37° C., 5% CO2, 40 μL (in duplicate) of experimental conditioned media were transferred into wells of the blocked ELISA plates containing the capture antibody, followed by overnight incubation at 4° C.
After overnight incubation of the ELISA assay plates at 4° C., unbound Aβ peptides were removed thorough (4×100 μL) washes with Wash Buffer. Europium (Eu) labeled (custom labeled, Perkin Elmer) Aβ(1-16) 6e10 Monoclonal Antibody (Covance #SIG-39320 was added, (50 μL/well Eu-6e10 @ 1:5000, 20 uM EDTA) in Assay Buffer. Incubation at ambient temperature for a minimum of 2 hours was followed by (4×100 μL) washes with Wash Buffer, before 50 μL/well of Delfia Enhancement Solution (PerkinElmer) was added. Following a one hour ambient temperature incubation, the plates were read on an EnVision plate reader (PerkinElmer) using standard DELFIA TRF settings. Data analysis including inhibitory IC50 determination was performed using nonlinear regression fit analysis (in-house software) and the appropriate plate mean values for the maximum and minimum inhibition controls.

SMILES | IC50
CC(C)CN(CC1(F)CCCCC1)[C@@H]1CC[C@@H](CC(=O)O)C[C@H]1c1ccc(C(F)(F)F)cc1 [Example 52, {(1R,3S,4R)-4-{[(1-fluorocyclohexyl)methyl] (isobutyl)amino}-3-[4-(trifluoromethyl)phenyl]cyclohexyl}acetic acid, trifluoroacetate salt] | 190 nM
Cc1nc(CN(CC2CCCC2)[C@@H]2CC[C@@H](CC(=O)O)C[C@H]2c2ccc(C(F)(F)F)cc2)co1 [Example 53, {(1R,3S,4R)-4-{(cyclopentylmethyl)[(2-methyl-1,3-oxazol-4-yl)methyl]amino}-3-[4-(trifluoromethyl)phenyl]cyclohexyl}acetic acid, ammonium salt] | 959 nM
O=C(O)C[C@@H]1CC[C@@H](N(CC2CCCC2)CC2CCCC2)[C@H](c2ccc(Cl)c(F)c2)O1 [Example 54, [(2S,5R,6S)-5-[bis(cyclopentylmethyl)amino]-6-(4-chloro-3-fluorophenyl)tetrahydro-2H-pyran-2-yl]acetic acid, ammonium acid] | 1050 nM
O=C(O)C[C@@H]1CC[C@@H](N(CC2CCCC2)CC2CCCC2)[C@H](c2ccc(Cl)cc2)O1 [Example 55, [(2S,5R,6S)-5-[bis(cyclopentylmethyl)amino]-6-(4-chlorophenyl)tetrahydro-2H-pyran-2-yl]acetic acid] | 892 nM
CCOc1ccc(CN(CC(C)C)[C@@H]2CC[C@@H](CC(=O)O)C[C@H]2c2ccc(C(F)(F)F)cc2)cc1 [Example 57, {(1R,3S,4R)-4-[(4-ethoxybenzyl)(isobutyl)amino]-3-[4-(trifluoromethyl)phenyl]cyclohexyl}acetic acid, trifluoroacetate salt] | 171 nM
COc1cccc(F)c1CN(CC1(F)CCCCC1)[C@@H]1CC[C@@H](CC(=O)O)C[C@H]1c1ccc(C(F)(F)F)cc1 [Example 58, {(1R,3S,4R)-4-{[(1-fluorocyclohexyl)methyl](2-fluoro-6-methoxybenzyl)amino}-3-[4-(trifluoromethyl)phenyl]cyclohexyl}acetic acid, trifluoroacetate salt] | 309 nM
CCCc1nscc1CN(CC(C)C)[C@@H]1CC[C@@H](CC(=O)O)C[C@H]1c1ccc(C(F)(F)F)cc1 [Example 59, {(1R,3S,4R)-4-{isobutyl[(3-propylisothiazol-4-yl)methyl]amino}-3-[4-(trifluoromethyl)phenyl]cyclohexyl}acetic acid, trifluoroacetate salt] | 349 nM
CC(C)CN(CC1=CCCCC1)[C@@H]1CC[C@@H](CC(=O)O)C[C@H]1c1ccc(C(F)(F)F)cc1 [Example 60, {(1R,3S,4R)-4-[(cyclohex-1-en-1-ylmethyl)(isobutyl)amino]-3-[4-(trifluoromethyl)phenyl]cyclohexyl}acetic acid, trifluoroacetate salt] | 154 nM
O=C(O)C[C@@H]1CC[C@@H](N(Cc2ccc3c(c2)CCO3)CC2(F)CCCCC2)[C@H](c2ccc(C(F)(F)F)cc2)C1 [Example 61, {(1R,3S,4R)-4-{(2,3-dihydro-1-benzofuran-5-ylmethyl)[(1-fluorocyclohexyl)methyl]amino}-3-[4-(trifluoromethyl)phenyl]cyclohexyl}acetic acid, trifluoroacetate salt] | 607 nM
O=C(O)C[C@@H]1CC[C@@H](N(CC2=Cc3ccccc3OC2)CC2(F)CCCCC2)[C@H](c2ccc(C(F)(F)F)cc2)C1 [Example 62, {(1R,3S,4R)-4-{(2H-chromen-3-ylmethyl)[(1-fluorocyclohexyl)methyl]amino}-3-[4-(trifluoromethyl)phenyl]cyclohexyl}acetic acid, trifluoroacetate salt] | 223 nM
CC(C)CN(CC1=CCC2CC1C2(C)C)[C@@H]1CC[C@@H](CC(=O)O)C[C@H]1c1ccc(C(F)(F)F)cc1 (stereo partly drawn) [Example 63, {(1R,3S,4R)-4-{[(6,6-dimethylbicyclo[3.1.1]hept-2-en-2-yl)methyl](isobutyl)amino}-3-[4-(trifluoromethyl)phenyl]cyclohexyl}acetic acid, trifluoroacetate salt] | 336 nM
CCc1csc(CN(CC2(F)CCCCC2)[C@@H]2CC[C@@H](CC(=O)O)C[C@H]2c2ccc(C(F)(F)F)cc2)n1 [Example 64, {(1R,3S,4R)-4-{[(4-ethyl-1,3-thiazol-2-yl)methyl][(1-fluorocyclohexyl)methyl]amino}-3-[4-(trifluoromethyl)phenyl]cyclohexyl}acetic acid, trifluoroacetate salt] | 840 nM
O=C(O)C[C@@H]1CC[C@@H](N(Cc2ccc3nonc3c2)CC2(F)CCCCC2)[C@H](c2ccc(C(F)(F)F)cc2)C1 [Example 65, {(1R,3S,4R)-4-{(2,1,3-benzoxadiazol-5-ylmethyl)[(1-fluorocyclohexyl)methyl]amino}-3-[4-(trifluoromethyl)phenyl]cyclohexyl}acetic acid, trifluoroacetate salt] | 509 nM
CC(C)CN(Cc1ccc(C(C)(C)C)cc1)[C@@H]1CC[C@@H](CC(=O)O)C[C@H]1c1ccc(C(F)(F)F)cc1 [Example 66, {(1R,3S,4R)-4-[(4-tert-butylbenzyl)(isobutyl)amino]-3-[4-(trifluoromethyl)phenyl]cyclohexyl}acetic acid, trifluoroacetate salt] | 268 nM
Cc1cc(CN(CC(C)C)[C@@H]2CC[C@@H](CC(=O)O)C[C@H]2c2ccc(C(F)(F)F)cc2)oc1C [Example 67, {(1R,3S,4R)-4-{[(4,5-dimethyl-2-furyl)methyl](isobutyl)amino}-3-[4-(trifluoromethyl)phenyl]cyclohexyl}acetic acid, trifluoroacetate salt] | 411 nM

Source: patent US20120295923A1, “Aminocyclohexanes and Aminotetrahydropyrans and Related Compounds As Gamma-Secretase Modulators” (PFIZER INC., priority 2010, published 2012)
